Consider one molecule from paper PMC9909315, “SY-707, an ALK/FAK/IGF1R inhibitor, suppresses growth and metastasis of breast cancer cells” (Acta Biochimica et Biophysica Sinica, 2022).

Data set [1] concerns MCF-7 cells. Nature of the data set: Cell adhesion assay. Format: cell-based. As to conditions: MCF-7, 24 h pretreatment, dose-dependent. Here is the method:
(§1) MCF-7 and T47D cells were plated in 6-well plates and pretreated with different concentrations of PF-562271 or SY-707 for 24 h, and then trypsinized, washed and resuspended in culture medium. Cells were added into each well and incubated for 6 h. Non-adherent cells were collected by washing with PBS and counted.

For another data set, the system named is T47D cells. Nature of the data set: Cell adhesion assay. Format: cell-based. As to conditions: 24 h pretreatment, dose-dependent. Here is the method: as §1
The test system of data set [2] is phosphorylation of FAK at Tyr397 in T47D tumor tissue. As to the kind of experiment: Pharmacokinetics/pharmacodynamics study in T47D xenograft model. Format: in vivo, nude mice. The protocol: Figure5 Anti-tumor activities of SY-707 in breast cancer xenograftsXenograft tumors were established by inoculating T47D (A, B, C) cells or 4T1 (D) cells into the nude mice. Oral administration of SY-707 alone or combined with paclitaxel was initiated when tumors reached an average of approximately 150–300 mm3 in volume and continued through the experiment. Tumor volume was measured on the indicated days with the mean tumor volume±SD indicated for each group (10 mice/group). Each treatment group was compared to vehicle group with t-test. *P<0.05, **P<0.01. (B) The tumor tissues were harvested at 2 h after the last dosage of SY-707, compound levels in tumor tissues or plasma and the phosphorylation levels of FAK were analyzed.
To explore the relationship between the in vivo anti-tumor growth activities and the inhibition on FAK signaling, pharmacokinetics/pharmacodynamics studies were performed in T47D xenograft model.

In data set [3] the target is T1, FAK (Homo sapiens, UniProt Q05397). As to the kind of experiment: HTRF kinase enzyme assay. Conditions: ATP at Km. Format: biochemical.
Description: Homogeneous time-resolved fluorescence (HTRF) assay was performed to analyze kinase enzyme activity and compound potency using HTRF ® KinEASE ^TM-TK kit (Cisbio Bioassays, Shanghai, China). […] The resulted solutions were briefly mixed, centrifuged and incubated for 5 min. Finally, 2.5 μL of 4× ATP/TK peptide (ATP at K m for each kinase) solution was added to the reaction system to initiate the reaction. The enzymatic reaction was carried out for 60-120 min at 23°C, then terminated by addition of 5 μL of detection solution containing TK antibody-cryptate and 5 μL of Streptravidin-XL-665. The mixture was incubated for additional 1 h at 23°C. The fluorescent signals were measured with an EnVision multilabel plate reader (PerkinElmer). IC 50 values of the compounds were calculated using the GraFit software (Version 6.0) and presented as the mean of three independent experiments performed in duplicate.
For data set [4], the system named is MCF-7 cells. As to the kind of experiment: Cell cycle analysis (PI, flow cytometry). As to conditions: MCF-7, 24 h, dose-dependent; decrease of S phase. Format: cell-based. Here is the method:
(§2) MCF-7 cells were treated with 0.1% DMSO (control) or with SY-707 solution at indicated concentrations for 24 h at 37°C, then the cells were harvested by centrifugation at 350 g and washed twice with PBS. Cell apoptosis was determined using the PE Annexin V Apoptosis Detection kit (BD Biosciences, San Jose, USA) following the manufacture’s guides. Breifly, cells were resuspended with 100 μL of binding buffer containing Annexin V and 7-AAD. After 15 min of incubation at room temperature in the dark, 400 μL of binding buffer was added to the mixture and the cells were analyzed with a Guava flow cytometer (Millipore). Cell cycle arrest was evaluated by incorporation of propidium (PI; Sigma-Aldrich, St Louis, USA) into the permeablized cells. After being treated with DMSO or compounds for 24 h, cells were harvested, washed twice with cold PBS, fixed with ice-cold 70% ethanol, followed by a secondary staining step with staining buffer (0.25 mg/mL RNase, 0.025 mg/mL PI, in PBS) for 1 h at 37°C. Compound regulation of cell-cycle was analyzed using the Guava flow cytometer. Data were analyzed with FlowJo software.
On the technique in general: Flow cytometry measures light scatter and fluorescence of single cells or particles in a stream.

The next data set deals with LTK (Homo sapiens, UniProt P29376). As to the kind of experiment: HTRF kinase enzyme assay. As to conditions: ATP at Km. Format: biochemical. The protocol: (§3) Homogeneous time-resolved fluorescence (HTRF) assay was performed to analyze kinase enzyme activity and compound potency using HTRF ® KinEASE ^TM-TK kit (Cisbio Bioassays, Shanghai, China). Compound SY-707 was serially diluted by 3 folds from 1 mM stock solution in DMSO, and 4 μL of the diluted solution of the compounds was added to 96 μL of reaction buffer (50 mM HEPES, pH 7.0, 0.1 mM Na 3VO 4, 0.01% BAS, 5 mM MgCl 2, 1 mM DTT), then 2.5 μL of 4× compound solution and 5 μL of 2× kinases solution were added to a 384-well plate (OptiPlate-384; PerkinElmer, Wellesley, USA ). The resulted solutions were briefly mixed, centrifuged and incubated for 5 min. Finally, 2.5 μL of 4× ATP/TK peptide (ATP at K m for each kinase) solution was added to the reaction system to initiate the reaction. The enzymatic reaction was carried out for 60-120 min at 23°C, then terminated by addition of 5 μL of detection solution containing TK antibody-cryptate and 5 μL of Streptravidin-XL-665. The mixture was incubated for additional 1 h at 23°C. The fluorescent signals were measured with an EnVision multilabel plate reader (PerkinElmer). IC 50 values of the compounds were calculated using the GraFit software (Version 6.0) and presented as the mean of three independent experiments performed in duplicate.

The target in data set [5] is T2, ALK (Homo sapiens, UniProt Q9UM73). Nature of the data set: HTRF kinase enzyme assay. Format: biochemical. As to conditions: ATP at Km. The protocol: as §3
For orientation: In TR-FRET formats the signal depends on donor and acceptor labels being close together.

Data set [6] concerns MCF-7 cells. As to the kind of experiment: PE Annexin V/7-AAD apoptosis flow cytometry. Format: cell-based. Conditions: MCF-7, 0.01, 0.1 and 1 μM, 24 h. The protocol:
as §2

The target in data set [7] is T1, FAK. Nature of the data set: Enzymatic kinetic analysis at various ATP concentrations. Format: biochemical. Here is the method: (§4) SY-707 ( Figure 1A) was originally developed as an ALK inhibitor. […] To evaluate the in vitro enzymatic potency and selectivity of SY-707, a kinase panel screening on 96 kinases was performed to determine the inhibitory activities of SY-707 at a concentration of 1 mM. […] Then, enzymatic kinetic analysis of ALK and FAK was performed to explore the mechanisms of inhibition effect of SY-707. Activities of ALK or FAK were estimated at various concentrations of ATP in the presence or absence of SY-707.
(§5) (C) ALK enzyme activities were evaluated at various concentrations of ATP (0–50 μM) in the presence of different concentrations of SY-707. (D) FAK enzyme activities were evaluated at various concentrations of ATP (0–333 μM) in the presence of different concentrations of SY-707.

The target of data set [8] is T2, ALK. The data set is described as above. Format: biochemical. Here is the method:
as §4, §5

T2 sequence (Q9UM73 19-1620): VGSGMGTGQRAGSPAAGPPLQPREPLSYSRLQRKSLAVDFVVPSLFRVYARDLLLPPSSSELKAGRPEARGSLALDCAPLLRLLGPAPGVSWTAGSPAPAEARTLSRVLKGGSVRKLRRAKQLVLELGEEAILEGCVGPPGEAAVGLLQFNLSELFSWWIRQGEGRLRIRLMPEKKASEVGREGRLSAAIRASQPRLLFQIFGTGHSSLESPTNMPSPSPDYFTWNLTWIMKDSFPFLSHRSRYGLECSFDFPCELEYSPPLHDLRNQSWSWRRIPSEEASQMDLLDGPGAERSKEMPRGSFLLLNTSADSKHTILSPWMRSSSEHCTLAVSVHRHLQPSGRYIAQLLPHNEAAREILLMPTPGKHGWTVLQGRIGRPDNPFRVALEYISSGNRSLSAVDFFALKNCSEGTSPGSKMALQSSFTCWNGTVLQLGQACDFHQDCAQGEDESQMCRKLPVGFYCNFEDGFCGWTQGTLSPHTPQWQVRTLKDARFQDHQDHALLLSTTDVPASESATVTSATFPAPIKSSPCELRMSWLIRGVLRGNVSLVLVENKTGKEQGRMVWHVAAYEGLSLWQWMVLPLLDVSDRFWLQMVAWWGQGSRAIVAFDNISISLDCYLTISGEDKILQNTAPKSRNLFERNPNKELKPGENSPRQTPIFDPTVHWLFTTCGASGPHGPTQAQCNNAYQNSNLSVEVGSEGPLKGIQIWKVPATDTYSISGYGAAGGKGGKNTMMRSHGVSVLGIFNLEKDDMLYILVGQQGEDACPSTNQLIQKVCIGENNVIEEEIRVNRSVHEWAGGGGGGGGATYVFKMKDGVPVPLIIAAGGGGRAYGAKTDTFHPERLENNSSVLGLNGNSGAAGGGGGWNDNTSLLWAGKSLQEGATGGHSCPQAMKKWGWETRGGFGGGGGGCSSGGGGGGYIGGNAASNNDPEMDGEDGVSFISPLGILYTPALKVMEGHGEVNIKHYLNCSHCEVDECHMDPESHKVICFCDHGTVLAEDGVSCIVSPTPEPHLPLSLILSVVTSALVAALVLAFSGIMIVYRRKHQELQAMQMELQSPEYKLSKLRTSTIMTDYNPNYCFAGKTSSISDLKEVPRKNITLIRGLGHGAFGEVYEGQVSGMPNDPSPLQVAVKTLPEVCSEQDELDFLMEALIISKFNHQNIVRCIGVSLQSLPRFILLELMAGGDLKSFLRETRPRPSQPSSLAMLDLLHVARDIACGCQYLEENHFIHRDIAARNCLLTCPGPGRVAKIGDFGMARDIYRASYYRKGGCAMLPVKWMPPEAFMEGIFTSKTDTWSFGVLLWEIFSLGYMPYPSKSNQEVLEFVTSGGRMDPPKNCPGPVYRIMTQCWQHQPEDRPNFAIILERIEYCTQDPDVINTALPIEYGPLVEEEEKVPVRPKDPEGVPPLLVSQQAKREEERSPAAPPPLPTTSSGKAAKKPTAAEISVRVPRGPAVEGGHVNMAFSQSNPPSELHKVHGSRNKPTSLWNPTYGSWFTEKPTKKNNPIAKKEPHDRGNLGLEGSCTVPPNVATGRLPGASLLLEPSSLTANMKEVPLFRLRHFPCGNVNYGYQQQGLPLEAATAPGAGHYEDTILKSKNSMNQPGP
T1 sequence (Q05397 whole entry): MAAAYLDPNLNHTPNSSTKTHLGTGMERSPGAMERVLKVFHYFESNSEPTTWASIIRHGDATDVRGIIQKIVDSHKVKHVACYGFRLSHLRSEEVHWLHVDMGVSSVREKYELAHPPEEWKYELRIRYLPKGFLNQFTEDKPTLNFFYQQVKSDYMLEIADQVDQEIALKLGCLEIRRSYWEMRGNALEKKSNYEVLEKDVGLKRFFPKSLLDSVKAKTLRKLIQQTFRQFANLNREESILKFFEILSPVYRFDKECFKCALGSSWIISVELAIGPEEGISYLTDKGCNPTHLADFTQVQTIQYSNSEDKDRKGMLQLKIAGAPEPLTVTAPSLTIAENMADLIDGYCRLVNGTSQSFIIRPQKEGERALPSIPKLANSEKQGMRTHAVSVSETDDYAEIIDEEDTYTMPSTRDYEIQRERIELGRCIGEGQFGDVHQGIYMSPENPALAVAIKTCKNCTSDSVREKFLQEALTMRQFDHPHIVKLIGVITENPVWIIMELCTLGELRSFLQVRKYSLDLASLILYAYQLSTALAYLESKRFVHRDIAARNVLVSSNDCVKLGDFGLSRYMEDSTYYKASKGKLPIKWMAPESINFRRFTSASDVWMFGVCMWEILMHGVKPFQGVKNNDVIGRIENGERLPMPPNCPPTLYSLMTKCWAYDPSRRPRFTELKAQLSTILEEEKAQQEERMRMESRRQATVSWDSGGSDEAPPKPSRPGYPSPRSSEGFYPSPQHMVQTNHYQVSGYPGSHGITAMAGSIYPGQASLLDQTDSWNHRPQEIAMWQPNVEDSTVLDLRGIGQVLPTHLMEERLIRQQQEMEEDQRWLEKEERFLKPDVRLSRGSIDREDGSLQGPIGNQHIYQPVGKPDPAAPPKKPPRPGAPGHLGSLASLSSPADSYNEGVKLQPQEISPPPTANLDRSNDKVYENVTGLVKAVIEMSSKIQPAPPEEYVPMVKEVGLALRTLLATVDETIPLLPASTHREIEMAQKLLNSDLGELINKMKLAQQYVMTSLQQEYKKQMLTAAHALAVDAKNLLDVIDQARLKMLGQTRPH
LTK, sequence (P29376 17-864): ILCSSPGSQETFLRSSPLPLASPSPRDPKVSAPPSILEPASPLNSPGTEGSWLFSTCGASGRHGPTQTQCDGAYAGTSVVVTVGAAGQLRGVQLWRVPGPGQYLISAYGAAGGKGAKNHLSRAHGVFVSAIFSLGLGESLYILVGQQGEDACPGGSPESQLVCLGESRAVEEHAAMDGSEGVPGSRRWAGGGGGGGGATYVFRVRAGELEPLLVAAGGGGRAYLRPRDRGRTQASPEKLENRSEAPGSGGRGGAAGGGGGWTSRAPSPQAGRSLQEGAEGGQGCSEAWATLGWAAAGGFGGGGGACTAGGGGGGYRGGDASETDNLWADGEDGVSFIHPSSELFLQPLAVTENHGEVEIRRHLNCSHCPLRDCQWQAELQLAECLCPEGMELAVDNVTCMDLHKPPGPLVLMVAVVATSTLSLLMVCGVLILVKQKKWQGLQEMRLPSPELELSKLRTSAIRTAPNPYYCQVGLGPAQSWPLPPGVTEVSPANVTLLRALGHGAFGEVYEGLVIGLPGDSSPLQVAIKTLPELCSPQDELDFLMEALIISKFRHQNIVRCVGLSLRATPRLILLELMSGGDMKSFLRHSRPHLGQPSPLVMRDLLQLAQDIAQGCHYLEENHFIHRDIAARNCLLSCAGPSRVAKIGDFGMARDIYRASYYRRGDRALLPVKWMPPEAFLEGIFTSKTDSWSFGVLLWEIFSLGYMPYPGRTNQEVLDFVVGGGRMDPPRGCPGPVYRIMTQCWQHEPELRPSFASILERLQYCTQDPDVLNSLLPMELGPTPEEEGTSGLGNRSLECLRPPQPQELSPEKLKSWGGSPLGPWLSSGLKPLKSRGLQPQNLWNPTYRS

Turning to `COc1cc(N2CCC(N3CCN(C)CC3)CC2)ccc1Nc1nc2c(c(Nc3ccccc3S(=O)(=O)NC(C)C)n1)CCN2` [SY-707, N-isopropyl-2-((2-((2-methoxy-4-(4-(4-methylpiperazin-1-yl)piperidin-1-yl)phenyl)amino)-6,7-dihydro-5H-pyrrolo[2,3-d]pyrimidin-4-yl)amino)benzenesulfonamide], the cell adhesion result in the data set with MCF-7 cells [1] and in the data set on T47D cells was “characteristically repressed” in each case. Moreover, in data set [2] (2 h after last dosage), the “concentration in tumor samples compared to plasma” value is recorded as “higher concentrations of SY-707 were also detected in tumor samples”. In addition, the “phosphorylation level of FAK at Tyr397 in tumor” value in data set [2] (tumor harvested 2 h after last dosage, vs control group) is given as “significantly decreased”. Besides, the IC50 – broadly, the concentration at which inhibition is half-maximal – on FAK [3] came to 1.6 ± 0.5 nM; against LTK, 1.9 ± 0.18 nM; against ALK [5] it was 2.4 nM. Moreover, the cell cycle arrest entry in the data set on MCF-7 cells [4] was “pronounced G2/M phase arrest”. In the data set on MCF-7 cells [6], the Late apoptosis entry is “dose-dependently induced”. Moreover, the “mode of inhibition of FAK kinase” value on FAK [7] (double-reciprocal plots) is listed as “ATP-competitive inhibitory behavior”. Also, the “Ki', FAK enzyme-ATP complex” value on FAK [7] (enzyme-ATP complex) came out at 16.1 nM. The Ki (commonly the equilibrium dissociation constant of an inhibitor or competing ligand from its target) on FAK [7] (free enzyme, read-out: dissociation constant (Ki), free FAK enzyme) came to 0.56 nM; on ALK [8] (free enzyme, read-out: dissociation constant (Ki), free ALK enzyme) it was 0.9 nM. Also, the “mode of inhibition of ALK kinase” value on ALK [8] (Lineweaver-Burk plots) was “ATP-competitive inhibitor”. Besides, on ALK [8] (enzyme-ATP complex), the “Ki', ALK enzyme-ATP complex” value amounted to 19.2 nM.
